Laboratory results published in patent publication US20260297542A1, “HERBICIDE RESISTANT PLANTS” (SYNGENTA CROP PROTECTION AG, priority 2023, published 2026).
Where a chain is given by its changes, count along the chain named.

Legend:
[1] = target: T1, AtPPO1 S305L Y426V (SEQ ID NO.125) (Arabidopsis thaliana, UniProt P55826, S305L/Y426V); test: fluorescent Protoporphyrinogen Oxidase assay, crude extract; assay type: biochemical; details: read-out: percentage inhibition
T1 construct: made in house; host or cells: E. coli BL21 (DE3) hemG, crude extract
T1 sequence (P55826 35-537 S305L/Y426V): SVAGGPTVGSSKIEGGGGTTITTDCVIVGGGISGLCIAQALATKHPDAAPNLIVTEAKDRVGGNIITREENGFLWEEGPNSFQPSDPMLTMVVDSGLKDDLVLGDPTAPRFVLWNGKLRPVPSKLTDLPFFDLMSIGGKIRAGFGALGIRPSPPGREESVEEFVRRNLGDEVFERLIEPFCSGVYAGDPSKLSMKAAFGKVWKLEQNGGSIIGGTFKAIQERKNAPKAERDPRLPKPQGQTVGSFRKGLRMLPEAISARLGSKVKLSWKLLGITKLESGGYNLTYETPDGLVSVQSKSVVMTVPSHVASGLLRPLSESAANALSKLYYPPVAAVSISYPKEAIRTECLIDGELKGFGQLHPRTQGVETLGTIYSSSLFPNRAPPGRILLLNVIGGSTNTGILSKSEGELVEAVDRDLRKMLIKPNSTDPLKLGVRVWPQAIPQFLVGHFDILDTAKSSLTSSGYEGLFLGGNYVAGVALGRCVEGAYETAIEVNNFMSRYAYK

[2] = target: T2, AtPPO1 S305L G404A L479N (SEQ ID NO.137) (Arabidopsis thaliana, UniProt P55826, G404A/L479N/S305L); test: as above; assay type: biochemical; details: read-out: percentage inhibition
T2 construct: made in house; host or cells: E. coli BL21 (DE3) hemG, crude extract
T2 sequence (P55826 35-537 S305L/G404A/L479N): T1 sequence (P55826 35-537 S305L/Y426V) with G370A, V392Y, L445N

Structure (SMILES)	inhibition at 0.1 ppm [1]	inhibition at 1 ppm [1]	inhibition at 10 ppm [1]	inhibition at 100 ppm [1]	inhibition at 0.1 ppm [2]	inhibition at 1 ppm [2]	inhibition at 10 ppm [2]	inhibition at 100 ppm [2]
CC(C)N(C)S(=O)(=O)NC(=O)c1cc(-n2c(=O)cc(C(F)(F)F)n(C)c2=O)c(F)cc1Cl [Herbicide E, saflufenacil]	0%	2%	50%	84%	22%	66%	100%	96%
C#CCN1C(=O)C(F)(F)Oc2cc(F)c(-n3c(=O)n(C)c(=S)n(C)c3=O)cc21 [Herbicide B, trifludimoxazin]	87%	99%	100%	100%	77%	98%	100%	100%
CCOC(=O)[C@]1(C)CC(c2cc(-n3c(=O)n(C)c(=S)n(C)c3=O)c(F)cc2Cl)=NO1 [Herbicide D, ethyl (5S)-3-[2-chloro-5-(3,5-dimethyl-2,6-dioxo-4-thioxo-1,3,5-triazinan-1-yl)-4-fluoro-phenyl]-5-methyl-4H-isoxazole-5-carboxylate]	0%	10%	53%	83%	12%	58%	98%	100%
CCOC(=O)C1(C)CC(c2cc(-n3c(=O)cc(C(F)(F)F)n(C)c3=O)c(F)cc2Cl)=NO1 (stereo not shown) [Herbicide C, 3-(2-chloro-4-fluoro-5-(3-methyl-2,6-dioxo-4-trifluoromethyl-3,6-dihydropyrimidin-1(2H)-yl)phenyl)-5-methyl-4,5-dihydroisoxazole-5-carboxylic acid ethyl ester]	0%	31%	81%	97%	26%	90%	100%	100%
CCOC(=O)COc1ncccc1Oc1cc(-n2c(=O)cc(C(F)(F)F)n(C)c2=O)c(F)cc1Cl [Herbicide A, epyrifenacil]	0%	11%	63%	87%	24%	93%	100%	100%
